From paper PMC12386283, “Elucidating the Complex Structural and Molecular Mechanisms Driving P-Glycoprotein-Mediated Transport of Cardiac Glycosides” (International Journal of Molecular Sciences, 2025)

What was measured:
[1] = target: T1, wild-type mouse Pgp (MDR3) (Mus musculus, UniProt P21447)
Experimental: (§1) Overexpression of wild-type mouse Pgp (MDR3) was achieved by using genetically engineered strains of Pichia pastoris with a 6X histidine tag. The cells were cultured in glycerol media, and methanol was used to induce the overexpression of Pgp at the Bioexpression and Fermentation Facility (BFF), University of Georgia, Athens, GA, USA. A repeated cycle of freezing using liquid nitrogen, blending, and thawing was used to lyse the Pgp-expressing P. pastoris cells. The protein was purified using affinity chromatography with nickel-nitrilotriacetic acid (Ni-NTA) resin (Thermo Fisher Scientific, Waltham, MA, USA). DDM was used to solubilize the protein, and the solution was concentrated using Amicon Ultra-15 100 kDa cut-off filters (EMD Millipore, Billerica, MA, USA). The concentration of purified protein was measured at 280 nm using a calculated extinction coefficient of 1.28 per mg mL^−1 on a Nanodrop (DeNovix, Wilmington, DE, USA). […] The purified DDM-solubilized Pgp was aliquoted and stored at −80 °C for future analysis.
(§2) Approximately 40 µL of DDM-solubilized Pgp was dialyzed for two hours against HEPES buffer (20 mM HEPES, 100 mM NaCl, 5 mM MgCl2, 2 mM DTT, pH 7.4) to remove any remnants of the detergent, DDM. The dialyzed protein was mixed with 4 mg mL^−1 of the extruded liposomes and incubated on ice for at least one hour to allow Pgp to integrate into the liposomes. To remove any additional detergent and further facilitate Pgp integration into the liposome, the solution was dialyzed for a second time for two hours in HEPES buffer to form proteoliposomes, and the concentration of Pgp reconstituted in liposomes was determined using the Bio-Rad DC Protein assay. Finally, the solution was aliquoted and stored at −80 °C for future use.
Acrylamide, an aqueous collisional quencher, can be used to determine the changes in conformation upon Pgp-drug interaction. The principle of this technique is that as the drug interacts with the protein, the conformation of the accessible tryptophan residues in the protein also changes, resulting in a shift in fluorescence intensity. For this experiment, to measure the fluorescence of Pgp reconstituted in liposomes, in the presence (250 µM) or absence of drug(s), the excitation and emission wavelengths used were 295 nm and 330 nm, respectively. The proteoliposomes were diluted to a final concentration of 1 µM in Chifflet buffer (pH 7.4) containing 2 mM DTT, and it was titrated against an increasing concentration of acrylamide. A concentration of 11 µM N-acetyl-L-tryptophanamide (NATA), an analog of tryptophan, was used as a positive control to determine non-specific quenching. A saturated concentration of AMPPNP (3.2 mM), a non-hydrolysable form of ATP, was used to generate an outward-open conformation of Pgp. All the experiments for acrylamide quenching were performed at 21 °C. To correct the fluorescence intensities for background, dilution, and inner filter effects, […] was used. A Stern–Volmer plot was constructed with F0(corrected)/F(corrected) versus acrylamide concentration. The slope of the curve determined the degree of quenching, and it was related to the Stern–Volmer constant (Ksv) by Equation (4), as follows:(4) Focorrected/Fcorrected=1+KsvQ where F0(corrected)/F(corrected) = Stern–Volmer plot; Ksv = Stern–Volmer constant; and [Q] = acrylamide concentration.

[2] = target: T1, wild-type mouse Pgp (MDR3); test: biochemical
Experimental: as §1, §2
The intrinsic tryptophan residues in the protein can be selectively excited and emitted at 295 nm and 330 nm wavelengths, respectively. The binding of the drug to the protein can alter the spatial arrangement encountered by the tryptophan residue(s) and thereby regulate the fluorescence intensity of the protein [52]. […] Proteoliposomes diluted to 1 µM in Chifflet buffer containing 2 mM DTT were titrated against varying concentrations of drugs. The intrinsic protein fluorescence was measured at 330 nm upon excitation at 295 nm using an Olis DM 45 spectrophotometer (Olis Corporation, Bogart, GA, USA). To nullify the effect of Rayleigh bands on the observed spectra, a 10 nm band-pass filter was inserted on the excitation and emission paths of the spectrophotometer. The drug-induced quenching of intrinsic Pgp fluorescence was corrected (Fcorrected) for factors such as dilution, background fluorescence, and inner filter effects using the equation mentioned below (Equation (2)).(2) Fcorrected=F−B10^εexbex+εembemQ/2 where Fcorrected = Drug-induced quenching of intrinsic Pgp fluorescence; F = Emitted intrinsic Pgp fluorescence at 330 nm; [Q] = Concentration of drug; εex and εem = Excitation and emission extinction coefficients, respectively; bex and bem = Path lengths of excitation (0.4 mm) and emission (10 mm) wavelengths, respectively; and B = Background fluorescence measured from drug and solvent.
The resulting quenching curves were fit using a modified Stern-Volmer equation (Equation (3)), as follows:(3) Fcorrected=FOcorrected/1+KsvQ+Funquenched where Fcorrected = The corrected fluorescence; F0(corrected) = Fluorescence recorded in the absence of drug; [Q] = Concentration of drug; Ksv = Stern–Volmer constant; and F(unquenched) = unquenched fluorescence.

[3] = target: T1, wild-type mouse Pgp (MDR3); conditions: mouse, not told, pH 7.4
Description: The STDD NMR technique is a robust method used to characterize the interaction between a drug and receptor protein [36, 86]. This technique utilizes a saturated low-strength radio frequency (RF) to selectively excite the receptor protein. […] Due to the localization of Pgp, most of its substrates are lipophilic, resulting in a probable non-specific interaction between its substrates and liposomes in the observed STD NMR spectrum. Therefore, STD NMR of liposomes in the presence of drugs was performed. The resulting spectrum was subtracted from the ^1H STD NMR spectrum obtained from the drug in the presence of proteoliposome (Pgp reconstituted into liposome) to achieve a saturation transfer double-difference (STDD) NMR spectrum, which nullified the STD observations of the drugs in the presence of liposomes.
This technique was performed as previously described. […] The NMR tubes with the sample were centrifuged at 3000× g for 5 min. To suppress the background signals caused by water, a tailored gradient pulse sequence known as water suppression by gradient-tailored excitation (WATERGATE) was also included. A train of 50 ms Gaussian-shaped selective pulses was used to selectively excite and saturate Pgp for two seconds, and a relaxation delay of five seconds was also used. The STD NMR spectra for both the control and the samples were obtained through phase cycling, where the Pgp irradiation resonance was alternated between 1.5 ppm and 42 ppm on and off resonance, respectively, for 512 scans, creating the ^1H NMR spectrum.
For this experiment, the NMR studies were performed on a Bruker Avance NEO 800 MHz NMR spectrometer with a 1.7 mm TCI H{CN} probe at 25 °C. The STD NMR data generated were analyzed using iNMR software (Nucleomatic, Molfetta, Italy), Igor Pro 6.2, and Mnova 14.2.0 (Mastrelab Research S.L., Santiago de Compostela, Spain).

T1 sequence (P21447 whole entry): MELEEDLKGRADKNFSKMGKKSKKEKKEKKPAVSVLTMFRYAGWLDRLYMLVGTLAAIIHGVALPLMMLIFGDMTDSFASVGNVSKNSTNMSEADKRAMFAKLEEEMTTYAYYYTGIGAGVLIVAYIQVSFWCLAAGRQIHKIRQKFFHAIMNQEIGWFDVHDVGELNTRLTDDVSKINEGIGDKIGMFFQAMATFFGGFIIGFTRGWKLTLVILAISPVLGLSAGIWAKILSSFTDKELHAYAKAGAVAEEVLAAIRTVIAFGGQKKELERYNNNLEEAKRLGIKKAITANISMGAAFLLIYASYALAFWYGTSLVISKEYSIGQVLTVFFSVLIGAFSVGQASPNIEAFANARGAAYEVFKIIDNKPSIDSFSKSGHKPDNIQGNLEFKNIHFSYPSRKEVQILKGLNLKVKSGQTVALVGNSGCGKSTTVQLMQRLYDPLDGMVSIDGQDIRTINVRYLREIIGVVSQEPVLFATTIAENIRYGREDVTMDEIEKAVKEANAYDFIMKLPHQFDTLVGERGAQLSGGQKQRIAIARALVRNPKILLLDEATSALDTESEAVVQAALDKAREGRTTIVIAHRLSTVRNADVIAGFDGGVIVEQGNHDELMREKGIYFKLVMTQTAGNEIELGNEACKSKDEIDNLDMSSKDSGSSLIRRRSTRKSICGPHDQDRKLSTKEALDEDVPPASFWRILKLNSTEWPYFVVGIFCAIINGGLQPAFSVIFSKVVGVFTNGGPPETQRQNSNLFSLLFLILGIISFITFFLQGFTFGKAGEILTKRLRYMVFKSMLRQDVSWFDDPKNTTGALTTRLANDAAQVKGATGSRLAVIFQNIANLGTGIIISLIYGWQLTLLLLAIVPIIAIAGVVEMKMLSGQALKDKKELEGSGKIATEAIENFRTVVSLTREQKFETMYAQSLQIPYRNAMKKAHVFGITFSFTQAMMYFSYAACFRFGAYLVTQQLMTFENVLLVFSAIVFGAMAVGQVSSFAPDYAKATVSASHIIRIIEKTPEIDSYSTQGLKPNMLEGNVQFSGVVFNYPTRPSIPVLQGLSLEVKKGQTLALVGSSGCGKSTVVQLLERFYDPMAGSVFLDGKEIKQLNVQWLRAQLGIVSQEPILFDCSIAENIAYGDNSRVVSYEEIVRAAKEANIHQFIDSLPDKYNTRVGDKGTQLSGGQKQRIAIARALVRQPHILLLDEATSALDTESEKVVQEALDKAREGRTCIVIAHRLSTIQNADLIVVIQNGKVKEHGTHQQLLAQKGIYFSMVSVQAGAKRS

SMILES | Ksv of Pgp (acrylamide quenching) in the presence of AMPPNP alone [1] [M⁻¹] | Kd [2] [µM] | Pgp conformation upon drug binding in the absence of a nucleotide [1] | Interaction (Region/Group) Pgp (STDD-NMR Data) [3]
Nc1ncnc2c1ncn2[C@@H]1O[C@H](COP(=O)([O-])OP(=O)([O-])NP(=O)([O-])[O-])[C@@H](O)[C@H]1O.[Li+].[Li+].[Li+].[Li+] [AMPPNP, Adenosine 5′-(β,γ-imido) triphosphate lithium salt] | 1.6 ± 0.01 | – | – | –
C[C@H]1O[C@@H](O[C@H]2[C@@H](O)C[C@H](O[C@H]3[C@@H](O)C[C@H](O[C@H]4CC[C@@]5(C)[C@H](CC[C@@H]6[C@@H]5CC[C@]5(C)[C@@H](C7=CC(=O)OC7)CC[C@]65O)C4)O[C@@H]3C)O[C@@H]2C)C[C@H](O)[C@@H]1O [Digitoxin] | – | 16.7 ± 4.44 | intermediate | Protons on C3,C17, C18, C19 of steroid; C22 of lactone; C3,C5,C6 of sugar
